Results on 14 compounds are retold here after patent publication US8691991B2 (priority 2004, dated 2014).

In general, IC50 refers to the concentration at which inhibition is half-maximal. Low values mean higher potency, high ones lower potency.

In this assay the test system is Pseudotyped HIV vector. The experiment in a line: Pseudotyped HIV vector expressing luciferase reporter assay. It is filed as cell-based. The settings on record: Human immunodeficiency virus 1. As for the experimental part: Pseudotyped HIV Vector Expressing Luciferase Reporter Assay
Expression of luciferase reporter following viral integration was performed essentially as described in Jármy, G. et al., J. Medical Virology, 64:223-231, 2001.
(In general: In a reporter assay the amount or activity of a reporter protein is the signal.)
`COCCN(C)C(=O)Cn1c(=O)c(C(=O)NC(C)CO)c(O)c2ncc(Cc3ccc(F)cc3)cc21` (racemic) [Example 105, (±)-7-[(4-Fluorophenyl)methyl]-4-hydroxy-N-[2-hydroxy-1-methylethyl]-1-(2-{methyl[2-(methyloxy)ethyl]amino}-2-oxoethyl)-2-oxo-1,2-dihydro-1,5-naphthyridine-3-carboxamide] returned an IC50 of less than 10 nM. The figure for `COCCN(C)C(=O)Cn1c(=O)c(C(=O)NCC(C)O)c(O)c2ncc(Cc3ccc(F)cc3)cc21` (racemic) [Example 106, (±)-7-[(4-Fluorophenyl)methyl]-4-hydroxy-N-[(2-hydroxypropyl]-1-(2-{methyl[2-(methyloxy)ethyl]amino}-2-oxoethyl)-2-oxo-1,2-dihydro-1,5-naphthyridine-3-carboxamide] is less than 10 nM. The result for `COCCNC(=O)c1c(O)c2ncc(Cc3ccc(F)cc3)cc2[nH]c1=O` [Example 2, 7-(4-Fluorobenzyl)-4-hydroxy-N-(2-methoxyethyl)-2-oxo-1,2-dihydro-1,5-naphthyridine-3-carboxamide] reads less than 10 nM; that for `O=C(NC1CC1)c1c(O)c2ncc(Cc3ccc(F)cc3)cc2n(CCN2CCCC2=O)c1=O` [Example 9, N-Cyclopropyl-7-(4-fluorobenzyl)-4-hydroxy-2-oxo-1-[2-(2-oxopyrrolidin-1-yl)ethyl]-1,2-dihydro-1,5-naphthyridine-3-carboxamide], less than 10 nM. The figure for `O=C(NCCN1CCOCC1)c1c(O)c2ncc(Cc3ccc(F)cc3)cc2n(CCN2CCCC2=O)c1=O` [Example 10, 7-(4-Fluorobenzyl)-4-hydroxy-N-(2-morpholin-4-ylethyl)-2-oxo-1-[2-(2-oxopyrrolidin-1-yl)ethyl]-1,2-dihydro-1,5-naphthyridine-3-carboxamide] is less than 10 nM.

`COCCNC(=O)c1c(O)c2ncc(Cc3ccccc3)cc2n(CC(=O)N2CCOCC2)c1=O` [Example 12] registered a concentration for half-maximal inhibition (IC50) of less than 10 nM. The result for `COCCNC(=O)c1c(O)c2ncc(Cc3ccccc3)cc2[nH]c1=O` [Example 17] reads 10 to 25 nM. The figure for `O=C(NCCCN1CCCC1=O)c1c(O)c2ncc(Cc3ccc(F)cc3)cc2[nH]c1=O` [Example 28] is less than 10 nM; for `O=C(NCCN1CCOCC1)c1c(O)c2ncc(Cc3ccc(F)cc3)cc2[nH]c1=O` [Example 36, 7-[(4-Fluorophenyl)methyl]-4-hydroxy-N-[2-(4-morpholinyl)ethyl]-2-oxo-1,2-dihydro-1,5-naphthyridine-3-carboxamide] it is less than 10 nM; for `COCCNC(=O)c1c(O)c2ncc(Cc3ccccc3)cc2n(Cc2ccc(S(C)(=O)=O)cc2)c1=O` [Example 45, 7-Benzyl-4-hydroxy-N-(2-methoxyethyl)-1-[4-(methylsulfonyl)benzyl]-2-oxo-1,2-dihydro-1,5-naphthyridine-3-carboxamide] it is less than 10 nM. The result for `COCCNC(=O)c1c(O)c2ncc(Cc3ccc(F)cc3)cc2n(CCN2CCCC2=O)c1=O` [Example 49, 7-(4-Fluorobenzyl)-4-hydroxy-N-(2-methoxyethyl)-2-oxo-1-[2-(2-oxopyrrolidin-1-yl)ethyl]-1,2-dihydro-1,5-naphthyridine-3-carboxamide] reads less than 10 nM.

In turn, `COCCNC(=O)c1c(O)c2ncc(Cc3ccccc3)cc2n(Cc2nccn2C)c1=O` [Example 50, 7-Benzyl-4-hydroxy-N-(2-methoxyethyl)-1-[(1-methyl-1H-imidazol-2-yl)methyl]-2-oxo-1,2-dihydro-1,5-naphthyridine-3-carboxamide] showed an IC50 of less than 10 nM. Take `COCCNC(=O)c1c(O)c2ncc(Cc3ccccc3)cc2n(CC2CC2)c1=O` [Example 54, 7-Benzyl-1-(cyclopropylmethyl)-4-hydroxy-N-(2-methoxyethyl)-2-oxo-1,2-dihydro-1,5-naphthyridine-3-carboxamide]: the IC50 is less than 10 nM. For the compound `COCCNC(=O)c1c(O)c2ncc(Cc3ccccc3)cc2n(Cc2nccs2)c1=O` [Example 62, 7-Benzyl-4-hydroxy-N-(2-methoxyethyl)-2-oxo-1-(1,3-thiazol-2-ylmethyl)-1,2-dihydro-1,5-naphthyridine-3-carboxamide], the IC50 was less than 10 nM.
